From EP4725941A1, “ARYLAMIDE DERIVATIVE HAVING ANTITUMOR ACTIVITY” (priority 2020, dated 2021)
Where two headings read alike, the source gives them in different places.

Key:
BRAF = target: T1, BRAF (Homo sapiens, UniProt P15056); experiment: BRAF-inhibiting activity, time-resolved fluorescence-fluorescence resonance energy transfer assay; type: biochemical
T1 construct: purchased Eurofins Genomics KK; (BRAF); Thermo Fisher Scientific Inc. (MEK1)
Method: The BRAF-inhibiting activity of the compounds listed in Table 3 below was evaluated by the time-resolved fluorescence-fluorescence resonance energy transfer assay as described below.

MEK1 = target: T2, MEK1 (Homo sapiens, UniProt Q02750); experiment: MEK1-inhibiting activity, fluorescent polarization method (CRAF/MEK1/ERK2 cascade, IMAP); type: biochemical; conditions: Table 3; read-out: MEK1 IC50
T2 construct: purchased Thermo Fisher Scientific Inc. (MEK1, CRAF); Carna Biosciences, Inc. (ERK2)
Method: The MEK1-inhibiting activity of the compounds listed in Table 3 below were evaluated by the fluorescent polarization method as described below.

A549 = experiment: Cell proliferation-inhibiting activity (ATP in viable cells, CellTiter-Glo), A549; type: cell-based, human; conditions: human lung cancer cells, 4 days, read-out: A549 IC50
Calu-6 = experiment: Cell proliferation-inhibiting activity (ATP in viable cells, CellTiter-Glo), Calu-6; type: cell-based, human; conditions: read-out: Calu-6 IC50
NCI-H2122 = experiment: Cell proliferation-inhibiting activity (ATP in viable cells, CellTiter-Glo), NCI-H2122; type: cell-based, human; conditions: read-out: NCI-H2122 IC50
[1] = Human liver microsome stability; type: in vitro ADME; conditions: human liver microsomes, pH 7.4
[2] = human lung cancer cells, 4 days
[3] = Calu-6, 96 h, human lung cancer cells, 4 days
[4] = NCI-H2122, 96 h, human lung cancer cells, 4 days

T2 sequence (Q02750 whole entry): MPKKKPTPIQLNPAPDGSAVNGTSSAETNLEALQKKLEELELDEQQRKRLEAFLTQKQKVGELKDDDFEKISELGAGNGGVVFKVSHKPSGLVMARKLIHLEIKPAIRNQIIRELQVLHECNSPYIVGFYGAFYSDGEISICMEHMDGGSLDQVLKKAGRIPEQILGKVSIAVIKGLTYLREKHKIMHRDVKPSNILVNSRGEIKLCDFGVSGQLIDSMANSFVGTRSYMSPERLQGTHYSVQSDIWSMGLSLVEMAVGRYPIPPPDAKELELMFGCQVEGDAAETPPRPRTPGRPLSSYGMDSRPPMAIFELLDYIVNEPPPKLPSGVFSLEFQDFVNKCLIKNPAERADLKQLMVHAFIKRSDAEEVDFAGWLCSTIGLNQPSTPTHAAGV
T1 sequence (P15056 417-766 limits assumed): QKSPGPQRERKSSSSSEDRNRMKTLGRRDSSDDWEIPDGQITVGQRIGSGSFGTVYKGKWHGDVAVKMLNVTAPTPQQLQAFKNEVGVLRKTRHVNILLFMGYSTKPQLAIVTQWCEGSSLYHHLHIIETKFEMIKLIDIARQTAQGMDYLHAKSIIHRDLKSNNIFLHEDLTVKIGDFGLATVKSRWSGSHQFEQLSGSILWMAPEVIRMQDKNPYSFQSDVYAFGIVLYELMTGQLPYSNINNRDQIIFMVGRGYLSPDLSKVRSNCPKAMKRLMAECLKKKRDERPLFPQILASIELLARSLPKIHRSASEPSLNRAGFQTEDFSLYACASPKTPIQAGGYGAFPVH

SMILES	IC50 (BRAF; Table 3; read-out: BRAF IC50) [nM]	IC50 (MEK1) [nM]	IC50 (A549) [nM]	IC50 (Calu-6; [2]) [nM]	IC50 (NCI-H2122; [2]) [nM]	IC50 (BRAF; read-out: BRAF IC50; Table 3) [nM]	IC50 (A549; A549, 96 h) [nM]	IC50 (Calu-6; [3]) [nM]	IC50 (NCI-H2122; [4]) [nM]	microsomal CLint at 0.99 µM [1] [µL/min/mg]	IC50 (Calu-6; Homo sapiens, Calu-6, 96 h) [nM]	IC50 (NCI-H2122; Homo sapiens, NCI-H2122, 96 h) [nM]
COCC1(S(=O)(=O)Nc2cccc(Cc3cc(C(=O)NOC)c(Nc4ccc(I)cc4F)c(F)c3F)c2F)CC1 [Compound E-3]	5	33	4	7	2							
CCS(=O)(=O)Nc1nccc(Cc2cc(C(=O)NC3CC3)c(Nc3ccc(I)cc3F)c(F)c2F)c1F [Compound A-39]		41				14	30	79	7			
CS(=O)(=O)Nc1cccc(Cc2cc(C(N)=O)c(Nc3ccc(I)cc3F)c(F)c2F)c1F [Compound E-13, 3,4-difluoro-2-(2-fluoro-4-iodoanilino)-5-[[2-fluoro-3-(methanesulfonamide)phenyl]methyl]benzamide]			30	84	6	1						
NC(=O)c1c(Nc2ccc(I)cc2F)cncc1Oc1cccc(NS(=O)(=O)C2CC2)c1 [Ref-4, reference compound]		11					2	18	2	32		
CCS(=O)(=O)Nc1cccc(Cc2cc(C(=O)NOC(C)(C)C)c(Nc3ccc(I)cc3F)n(C)c2=O)c1F [Compound K-9]	8	23	17	34	8							
CNS(=O)(=O)Nc1nccc(Cn2cc(C(=O)NOC)c(Nc3ccc(I)cc3F)c(C)c2=O)c1F [Compound P-7, 4-(2-Fluoro-4-iodoanilino)-1-[[3-fluoro-2-(methylsulfamoylamino)pyridin-4-yl]methyl]-N-methoxy-5-methyl-6-oxopyridine-3-carboxamide]		7				7		72	7	12		
CONC(=O)c1cc(Cc2cccc(NS(C)(=O)=O)c2F)c(F)c(F)c1Nc1ccc(I)cc1F [Compound E-26, 3,4-Difluoro-2-(2-fluoro-4-iodoanilino)-5-[[2-fluoro-3-(methanesulfonamide)phenyl]methyl]-N-methoxybenzamide]		13				6		5	0.6	13		
CNS(=O)(=O)Nc1nccc(Cn2cc(C(=O)NC3CC3)c(Nc3ccc(I)cc3F)c(C)c2=O)c1F [Compound P-6, N-Cyclopropyl-4-(2-fluoro-4-iodoanilino)-1-[[3-fluoro-2-(methylsulfamoylamino)pyridin-4-yl]methyl]-5-methyl-6-oxopyridine-3-carboxamide]		13				9		8	4	4		
CCS(=O)(=O)Nc1nccc(Cc2cc(C(=O)NOC)c(Nc3ccc(C4CC4)cc3F)c(F)c2F)c1F [Compound G-8, 2-(4-Cyclopropyl-2-fluoroanilino)-5-[[2-(ethylsulfonylamino)-3-fluoropyridin-4-yl]methyl]-3,4-difluoro-N-methoxybenzamide]	7	53								26	232	25
CNS(=O)(=O)Nc1nccc(Cc2c(C)c3ccc(Oc4ncccn4)cc3oc2=O)c1F [Ref-5, 3-[[3-Fluoro-2-(methylsulfamoylamino)pyridin-4-yl]methyl]-4-methyl-7-pyrimidin-2-yloxychromen-2-one, reference compound]						11	113	418	27	< 1		
CONC(=O)c1cc(Cc2ccnc(NS(C)(=O)=O)c2F)c(F)c(F)c1Nc1ccc(C2CC2)cc1F [Compound G-9, 2-(4-Cyclopropyl-2-fluoroanilino)-3,4-difluoro-5-[[3-fluoro-2-(methanesulfonamide)pyridin-4-yl]methyl]-N-methoxybenzamide]	13	230								22	444	67
